Tests used:
in vivo = type: in vivo, rat
Experimental: The above developed LC-qTOF-MS method was applied to obtain the PK parameters after IV and PO administration in rat. Most of the PK samples were within the qualified calibration curve, except the 2 min-time point samples in the IV group which were slightly above the upper limit of quantification (ULOQ). Since the calibration curve was linear in the range of quantification, the concentrations of these early time point IV samples have been calculated by extrapolation of the calibration curve which is also applicable for discovery study in pharmaceutical industries. The PK parameters were calculated with the non-compartmental analysis (NCA) using WinNonlin® version 8.1.0 (Certara, Princeton, NJ, USA) and the results are summarized in Table 6.
Animal Male SD rats (320 ± 10 g) were purchased from the Samtako Biokorea co. (Gyeonggi, Republic of Korea) and housed in a group of four units per cage and given standard rodent chow. The rats were fasted overnight with free access to water for 12 h before administration. The formulation was prepared by dissolving α-amanitin in normal saline (NS) and DMSO (4:1, v/v).
The rats with femoral artery and femoral vein cannulation were prepared for the IV administration, and the rats with single femoral artery cannulation were prepared for the PO administration. The cannulated SD rats were given 1 mg/kg of α-amanitin by either IV bolus or PO (n = 4, both). After administration of α-amanitin, blood sample was collected through a femoral artery cannula and transferred into a heparin-containing tube at each sampling time point (IV: 2, 5, 15, 30, 60, 120, 240, 480, and 1440 min after drug administration and PO: 5, 15, 30, 60, 120, 240, 480, and 1440 min after drug administration). Then plasma sample was obtained by centrifuging the blood sample at 13,000 rpm for 5 min. The obtained plasma samples were stored at –20 °C until analysis. After analysis, the PK parameter was calculated using WinNonlin®.

[1] = In vitro metabolic stability in rat liver microsomes; type: in vitro ADME
Experimental: In vitro stability of α-amanitin at liver microsomal system was evaluated by a LC-qTOF-MS. The remaining % represents the percentage of the sample (α-amanitin) peak area to the internal standard (verapamil) peak area.
The in vitro half-life (T1/2) and the in vitro intrinsic clearance (CLint, in vitro) were calculated by using the slope (k) of the graph shown in Figure 3. The calculation formula is shown in Equations (1) and (2). (1) T1/2=ln2/k (2) CLint,in vitromL/min/mg=k×microsomal volume mL/microsomal protein mg
The concentration of liver microsomes (microsomal volume/microsomal protein) used in the experiment was 0.5 mL/mg. The obtained CLint, in vitro was used to calculate in vivo intrinsic clearance (CLint, in vivo). The equations for calculating CLint, in vivo is shown at Equation (3):(3) CLint,in vivomL/min/kg=CLint,in vitro×mg microsomal protein/g liver weight×(g liver weight/kg body weight)
The ratio of mg microsomal protein to g liver weight was 44.8 and 48.8 in rat and human, respectively. And the ratio of g liver weight/kg body weight was 40 and 25.7 in rat and human, respectively. The hepatic clearance (CLh) was calculated from CLint, in vivo in a well-stirred model using the following Equation (4):(4) CLhmL/min=(Qh×CLint,in vivo/Qh+CLint,in vivo)
Qh (mL/min/kg), the hepatic blood flow, is known to be 55.2 and 20.7 mL/min/kg in rat and human, respectively. As a result, α-amanitin has a low hepatic clearance according to the aforementioned well-stirred model.
A metabolic stability test of α-amanitin was performed in rat and human liver microsomes. Cofactors (NADPH regenerating system solution A and B), compound (100 μg/mL of α-amanitin), 0.5 M potassium phosphate buffer with pH 7.4, and DW were mixed and pre-incubated for 5 min at 37 °C. After the pre-incubation, 12 μL of rat or human liver microsome (20 mg/mL each) was added to a 468 μL of pre-incubated cofactor mixture and the mixture was incubated for 0, 15, 30, and 60 min. After the incubation for each time point, 100 μL of the mixture was aliquoted to a 1.5 mL E-tube at each time point and 100 μL of 50% ACN in MeOH which containing 250 ng/mL of verapamil as an internal standard for protein precipitation was added for stopping the reaction. Then the mixture was centrifuged at 10,000 rpm for 5 min. Then 180 μL of the supernatants was collected in a fresh E-tube and evaporated for 3 h. After evaporation, samples were reconstituted with 150 μL of 50% MeOH with 5 mM ammonium formate. After centrifugation at 10,000 rpm for 5 min, 140 μL of reconstituted sample was transferred to a LC-vial.

[2] = rat, in vivo, male SD rats, IV bolus 1 mg/kg, plasma, NCA, n = 4

CC[C@H](C)[C@@H]1NC(=O)CNC(=O)[C@@H]2Cc3c([nH]c4cc(O)ccc34)[S@+]([O-])C[C@H](NC(=O)CNC1=O)C(=O)N[C@@H](CC(N)=O)C(=O)N1C[C@H](O)C[C@H]1C(=O)N[C@@H]([C@@H](C)[C@@H](O)CO)C(=O)N2 [α-amanitin]
Plasma concentration after PO administration (in vivo; male SD rats, PO 1 mg/kg, all samples 5-1440 min, n = 4, calibration range 3.05–2220 ng/mL): below the LLOQ | In vivo clearance as % of hepatic blood flow (in vivo; rat, IV 1 mg/kg): ~30% | Bioavailability (in words) (in vivo; rat, PO 1 mg/kg): very low bioavailability | AUC(0-t) (in vivo; [2]): 1170 ng·h/mL | clearance (in vivo; [2]): 14 ± 1.3 mL/min/kg | half-life (in vivo; [2]): 0.372 ± 0.0163 h | Cmax (in vivo; rat, in vivo, male SD rats, IV bolus 1 mg/kg, plasma, NCA, n = 4, 2 min samples extrapolated above ULOQ): 2290 ± 274 ng/mL | Vd (in vivo; rat, in vivo, male SD rats, IV bolus 1 mg/kg, plasma, NCA, n = 4, read-out: Vss): 0.409 ± 0.0183 L/kg | remaining at 0.25 h ([1]; rat liver microsomes, 15 min incubation, NADPH regenerating system, potassium phosphate buffer pH 7.4, 37 °C, 5 min pre-incubation, LC-qTOF-MS): 94.2 ± 8.6% | remaining at 0.5 h ([1]; rat liver microsomes, 30 min incubation, NADPH regenerating system, potassium phosphate buffer pH 7.4, 37 °C, 5 min pre-incubation, LC-qTOF-MS): 93.1 ± 8.64% | remaining at 1 h ([1]; rat liver microsomes, 60 min incubation, NADPH regenerating system, potassium phosphate buffer pH 7.4, 37 °C, 5 min pre-incubation, LC-qTOF-MS): 90.3 ± 4.37% | half-life ([1]; rat liver microsomes, in vitro half-life, ln2/k from slope of ln(Remaining %) vs incubation time 0-60 min, NADPH, pH 7.4, 37 °C): 7.45 h | CLint, In Vitro ([1]; rat liver microsomes, k × microsomal volume/microsomal protein (0.5 mL/mg as printed)): <10 µL/min/mg | CLh ([1]; rat, predicted hepatic clearance, well-stirred model, Qh 55.2 mL/min/kg): 5.05 mL/min/kg | CLint, In Vivo ([1]; rat, scaled from CLint, in vitro with 44.8 mg microsomal protein/g liver and 40 g liver/kg body weight): 5.56 mL/min/kg

Reference: article PMC9740789, “Investigation of In Vitro and In Vivo Metabolism of α-Amanitin in Rats Using Liquid Chromatography-Quadrupole Time-of-Flight Mass Spectrometric Method” (Molecules, 2022)
